Paper PMC2896556 (Biochemistry, 2010)
Like-named read-outs stand apart in the source and are kept apart here.

Key:
RT subunit interactions = conditions: cited from earlier work
p51/p51 = conditions: cited from earlier work
p66/p66 = conditions: cited from earlier work
RT dimerization [1] = conditions: urea denaturation; cited from earlier work
p66 = p66 (Human immunodeficiency virus type 1 group M subtype B, UniProt P04585); set-up: species or system HIV-1; conditions: 3 μM p66, 25 μM NNRTI, 1 wk
RT dimerization [2] = conditions: yeast-two hybrid; cited from earlier work

Row | SMILES | effect on RT subunit interactions (RT subunit interactions) | also measured
1 | CC(C)(C)c1ccc(C(=O)NN=Cc2ccccc2O)cc1 [BBSH, (4-tert-butylbenzoyl)-2-hydroxy-1-salicylyl hydrazone] | weaken subunit interactions | 
2 | CC(C)(C)c1ccc(C(=O)NN=Cc2c(O)ccc3ccccc23)cc1 [BBNH, N-(4-tert-butylbenzoyl)-2-hydroxy-1-naphthaldehyde hydrazone] | weaken subunit interactions | 
3 | CCn1c(=O)c(C)cn([C@@H]2O[C@H](CO[Si](C)(C)C(C)(C)C)C3(OS(=O)(=O)C=C3N)[C@H]2O[Si](C)(C)C(C)(C)C)c1=O (stereo partly drawn) [TSAOe^3T, 1-(spiro{4”-amino-2”,2”-dioxo-1”,2”-oxathiole-5”,3′-[2′,5′-bis-O-(tert-butyldimethylsilyl)-β-D-ribofuranosyl]})-3-ethylthymine] | weaken subunit interactions | 
4 | CC(C)Nc1cccnc1N1CCN(C(=O)c2cc3cc(NS(C)(=O)=O)ccc3[nH]2)CC1 [delavirdine] | little or no effect | 
5 | O=C1Nc2ccc(Cl)cc2[C@@](C#CC2CC2)(C(F)(F)F)O1 [efavirenz] | enhance subunit interactions | enhancement of dimer formation (p51/p51): 600 fold; enhancement of dimer formation (p66/p66): 50 fold
6 | Cc1ccnc2c1NC(=O)c1cccnc1N2C1CC1 [nevirapine] | enhance subunit interactions | effect on RT dimerization (RT dimerization [1]): no effect; effect on p66 dimerization (p66): enhance dimerization; effect on RT dimerization (RT dimerization [2]): small enhancement of dimerization
